Measured values reported in the CheMixHub viscosity set.
Where “and” joins values, the source holds several entries; their conditions need not be identical. Identical values can stand only once.

Assay: xn = mol fraction of the nth substance listed

[Na+].[Na+].[O]=[Cr](=[O])([O-])[O-] + O
viscosity, 101 kPa
Details	x1 = 0.012	x1 = 0.02109	x1 = 0.027	x1 = 0.045	x1 = 0.069	x1 = 0.083
298.15 K	1.16 mPa·s	1.38 mPa·s	1.68 mPa·s	2.88 mPa·s	6.14 mPa·s	10.03 mPa·s
312.95 K	0.85 mPa·s and 0.8523 mPa·s	–	1.23 mPa·s	1.98 mPa·s	3.9 mPa·s	5.94 mPa·s

Cc1cccc(O)c1 + O=Cc1ccccc1
308.15 K, 101.33 kPa
Details	viscosity [mPa·s]
x2 = 0.103	5.863
x2 = 0.308	3.972
x2 = 0.398	3.45
x2 = 0.545	2.597
x2 = 0.602	2.3
x2 = 0.704	1.844
x2 = 0.903	1.37

N + O=[N+]([O-])[O-].O=[N+]([O-])[O-].[Ca+2]
293.15 K, 101 kPa
Details	viscosity [mPa·s]
x2 = 0.01	0.17
x2 = 0.02	0.238
x2 = 0.042	0.355
x2 = 0.087	0.783

CCCCC(CC)COP(=O)(O)OCC(CC)CCCC (stereo not given) + O=[N+]([O-])c1ccccc1
Details	viscosity [mPa·s]
303.15 K, 100 kPa, x1 = 0.9387	17.75

Nc1ccc(Br)cc1 + [Br-].[Br-].[Br-].[Sb+3]
323.15 K, 101 kPa
Details	viscosity [mPa·s]
x2 = 0.25	212.7
x2 = 0.333	1215
x2 = 0.4	12170
x2 = 0.45	20000
x2 = 0.48	20530
x2 = 0.5	20730
x2 = 0.52	19960
x2 = 0.55	11640
x2 = 0.6	4143
x2 = 0.75	239.8

Brc1ccc(Br)cc1 + c1ccccc1
viscosity [mPa·s], 101 kPa
Details	298.15 K	303.15 K	308.15 K	313.15 K
x1 = 0.2002	0.8249	0.7715	0.719	0.6739
x1 = 0.2312	0.8532	0.8051	0.7502	0.7021

CCCCCCCCCCCCN + c1ccccc1
303.15 K, 101 kPa
Details	viscosity [mPa·s]
x2 = 0.2072	2.122
x2 = 0.4348	1.563
x2 = 0.5228	1.375
x2 = 0.6046	1.189
x2 = 0.7998	0.8357

C[N+](=O)[O-] + c1ccccc1
Details	viscosity [mPa·s]
293.15 K, 101.33 kPa, x1 = 0.0919	0.627
293.15 K, 101.33 kPa, x1 = 0.2238	0.606
293.15 K, 101.33 kPa, x1 = 0.2978	0.597
293.15 K, 101.33 kPa, x1 = 0.3994	0.587
293.15 K, 101.33 kPa, x1 = 0.494	0.582
293.15 K, 101.33 kPa, x1 = 0.7053	0.585
293.15 K, 101.33 kPa, x1 = 0.8004	0.595
293.15 K, 101.33 kPa, x1 = 0.9073	0.62
298.15 K, 101 kPa, x1 = 0.1559	0.5732
298.15 K, 101 kPa, x1 = 0.294	0.5584
298.15 K, 101 kPa, x1 = 0.4165	0.5532
298.15 K, 101 kPa, x1 = 0.5262	0.5534
298.15 K, 101 kPa, x1 = 0.6247	0.5571
298.15 K, 101 kPa, x1 = 0.7142	0.5652
298.15 K, 101 kPa, x1 = 0.7953	0.577
298.15 K, 101 kPa, x1 = 0.8693	0.5909
298.15 K, 101 kPa, x1 = 0.9376	0.6098
298.15 K, 101 kPa, x2 = 0.1005	0.6116
298.15 K, 101 kPa, x2 = 0.2025	0.5886
298.15 K, 101 kPa, x2 = 0.3017	0.5772
298.15 K, 101 kPa, x2 = 0.4012	0.5724
298.15 K, 101 kPa, x2 = 0.5019	0.5707
298.15 K, 101 kPa, x2 = 0.6014	0.5751
298.15 K, 101 kPa, x2 = 0.7074	0.5817
298.15 K, 101 kPa, x2 = 0.7985	0.5905
298.15 K, 101 kPa, x2 = 0.8947	0.6035
303.15 K, 101 kPa, x2 = 0.1005	0.5803
303.15 K, 101 kPa, x2 = 0.2025	0.5594
303.15 K, 101 kPa, x2 = 0.3017	0.5479
303.15 K, 101 kPa, x2 = 0.4012	0.5438
303.15 K, 101 kPa, x2 = 0.5019	0.5405
303.15 K, 101 kPa, x2 = 0.6014	0.5447
303.15 K, 101 kPa, x2 = 0.7074	0.5475
303.15 K, 101 kPa, x2 = 0.7985	0.556
303.15 K, 101 kPa, x2 = 0.8947	0.5662
308.15 K, 101 kPa, x2 = 0.1005	0.5518
308.15 K, 101 kPa, x2 = 0.2025	0.5299
308.15 K, 101 kPa, x2 = 0.3017	0.5201
308.15 K, 101 kPa, x2 = 0.4012	0.5142
308.15 K, 101 kPa, x2 = 0.5019	0.512
308.15 K, 101 kPa, x2 = 0.6014	0.5126
308.15 K, 101 kPa, x2 = 0.7074	0.5157
308.15 K, 101 kPa, x2 = 0.7985	0.5234
308.15 K, 101 kPa, x2 = 0.8947	0.5309
313.15 K, 101 kPa, x2 = 0.1005	0.5218
313.15 K, 101 kPa, x2 = 0.2025	0.5031
313.15 K, 101 kPa, x2 = 0.3017	0.4923
313.15 K, 101 kPa, x2 = 0.4012	0.4862
313.15 K, 101 kPa, x2 = 0.5019	0.4829
313.15 K, 101 kPa, x2 = 0.6014	0.4843
313.15 K, 101 kPa, x2 = 0.7074	0.4865
313.15 K, 101 kPa, x2 = 0.7985	0.4912
313.15 K, 101 kPa, x2 = 0.8947	0.4977

Cc1cccc(O)c1 + c1ccccc1
308.15 K, 101 kPa
Details	viscosity [mPa·s]
x1 = 0.1019	0.6327
x1 = 0.1702	0.7272
x1 = 0.305	0.9887
x1 = 0.4025	1.282
x1 = 0.5186	1.693
x1 = 0.6441	2.436
x1 = 0.768	3.648
x1 = 0.8611	4.963
x1 = 0.9525	6.937

c1ccc(Cc2ccccc2)cc1 + c1ccccc1
302.85 K, 101 kPa
Details	viscosity [mPa·s]
x1 = 0.113	0.733
x1 = 0.204	0.877
x1 = 0.288	1.026
x1 = 0.523	1.502
x1 = 0.686	1.873
x1 = 0.801	2.132
x1 = 0.893	2.342

Cc1cccc(O)c1 + c1ccncc1
viscosity [mPa·s], 101 kPa
Details	x1 = 0.1071	x1 = 0.2168	x1 = 0.3407	x1 = 0.3927	x1 = 0.4754	x1 = 0.542	x1 = 0.6374	x1 = 0.6973	x1 = 0.8077	x1 = 0.8862
293.15 K	1.228	1.77	2.54	3.085	4.25	5.585	8.16	9.98	13.08	14.81
303.15 K	1.098	1.461	2.125	2.51	3.35	4.175	5.57	6.52	7.885	8.64
313.15 K	0.931	1.24	1.732	2.022	2.605	3.15	3.995	4.565	5.255	5.59
